# Results taken from ChEMBL document CHEMBL1141959, “Metalloform-selective inhibition: synthesis and structure-activity analysis of Mn(II)-form-selective inhibitors of Escherichia coli methionine aminopeptidase” (Bioorg Med Chem Lett, 2005).
# Tests used:
# [1] = biological target: T1, Methionine aminopeptidase (Escherichia coli K-12, UniProt P0AE18); experiment: Inhibitory activity against Fe(II) form of Escherichia coli MetAP
# T1 sequence (P0AE18 whole entry): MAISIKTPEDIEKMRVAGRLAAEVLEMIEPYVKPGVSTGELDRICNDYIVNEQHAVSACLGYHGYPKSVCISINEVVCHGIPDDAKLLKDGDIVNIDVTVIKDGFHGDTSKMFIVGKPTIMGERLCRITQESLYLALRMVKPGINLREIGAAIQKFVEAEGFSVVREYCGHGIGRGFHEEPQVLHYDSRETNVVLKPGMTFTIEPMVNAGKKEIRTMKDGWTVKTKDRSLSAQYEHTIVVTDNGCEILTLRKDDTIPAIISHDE
# [2] = biological target: T1, Methionine aminopeptidase; experiment: Inhibitory activity against Ni(II) form of Escherichia coli MetAP
# [3] = biological target: T1, Methionine aminopeptidase; experiment: Inhibitory activity against Co(II) form of Escherichia coli MetAP
# [4] = biological target: T1, Methionine aminopeptidase; experiment: Inhibitory activity against Mn(II) form of Escherichia coli MetAP
Structure (SMILES),IC50 [1],IC50 [2],IC50 [3],IC50 [4]
O=C(O)c1ccc(Cc2ccccc2Cl)o1,199 µM,191 µM,158 µM,1.22 µM
O=C(O)c1ccc(-c2cc([N+](=O)[O-])ccc2F)o1,199 µM,193 µM,157 µM,14.9 µM
NC(=O)c1ccc(-c2ccccc2Cl)o1,> 200 µM,137 µM,71.4 µM,15.9 µM
Cc1cc([N+](=O)[O-])ccc1-c1ccc(C(=O)O)o1,150 µM,28.5 µM,59.5 µM,1.11 µM
O=C(O)c1ccc(-c2ccccc2C(F)(F)F)o1,158 µM,165 µM,101 µM,0.29 µM
O=C(NO)c1ccc(-c2ccccc2Cl)o1,0.793 µM,5.9 µM,4.61 µM,0.469 µM
O=C(O)c1ccc(-c2ccccc2C(=O)O)o1,> 200 µM,> 200 µM,> 200 µM,23.5 µM
NNC(=O)c1ccc(-c2ccccc2Cl)o1,58 µM,5.78 µM,77.1 µM,
O=C(O)c1ccc(Cc2ccccc2)o1,33.7 µM,67.5 µM,42.5 µM,33.5 µM
O=C(O)c1ccc(-c2ccccc2O)o1,190 µM,153 µM,127 µM,6.92 µM
C=CCCOc1ccccc1-c1ccc(C(=O)O)o1,111 µM,113 µM,93.5 µM,3.65 µM
O=C(O)c1ccc(-c2ccc(Cl)cc2)o1,> 200 µM,> 200 µM,180 µM,12.1 µM
O=C(NO)c1ccc(Cc2ccccc2Cl)o1,122 µM,107 µM,119 µM,9.84 µM
CONC(=O)c1ccc(-c2ccccc2Cl)o1,178 µM,51.2 µM,57.5 µM,40 µM
O=C(O)c1ccc(-c2ccccc2)o1,> 200 µM,195 µM,188 µM,16.3 µM
OCc1ccc(-c2ccccc2Cl)o1,> 200 µM,55 µM,84.2 µM,28.1 µM
O=C(O)c1ccc(-c2cccc(Cl)c2)o1,> 200 µM,> 200 µM,199 µM,11.7 µM

Structure (SMILES),IC50 [1],IC50 [2],IC50 [3],IC50 [4]
COC(=O)c1ccc(-c2ccccc2Cl)o1,> 200 µM,> 200 µM,> 200 µM,166 µM
O=C(O)c1ccc(-c2ccccc2F)o1,> 200 µM,> 200 µM,> 200 µM,13.6 µM
C#CCOc1ccccc1-c1ccc(C(=O)O)o1,193 µM,171 µM,98.9 µM,4.71 µM
COC(=O)c1ccccc1-c1ccc(C(=O)O)o1,> 200 µM,194 µM,160 µM,3.47 µM
O=C(O)c1ccc(-c2cc([N+](=O)[O-])ccc2Cl)o1,31.1 µM,38.4 µM,44.3 µM,1.32 µM
CCOc1ccccc1-c1ccc(C(=O)O)o1,> 200 µM,> 200 µM,147 µM,1.13 µM
O=C(O)c1ccc(-c2ccccc2CF)o1,85.2 µM,68 µM,55.4 µM,0.893 µM
N#CCc1ccc(-c2ccccc2Cl)o1,97.7 µM,56.3 µM,57.3 µM,47.6 µM
O=C(O)c1ccc(-c2ccccc2[N+](=O)[O-])o1,178 µM,175 µM,120 µM,1.08 µM
COc1ccc([N+](=O)[O-])cc1-c1ccc(C(=O)O)o1,36.2 µM,34.5 µM,24.1 µM,0.642 µM
O=Cc1ccccc1-c1ccc(C(=O)O)o1,69.2 µM,67.5 µM,82.6 µM,7.17 µM
Cc1cccc(-c2ccc(C(=O)O)o2)c1Cl,196 µM,188 µM,187 µM,1.71 µM
COCCOc1ccccc1-c1ccc(C(=O)O)o1,169 µM,163 µM,103 µM,9.45 µM
O=C(O)c1ccc(-c2ccccc2CO)o1,> 200 µM,190 µM,189 µM,10 µM
O=C(O)Cc1ccc(Cc2ccccc2Cl)o1,177 µM,117 µM,77.3 µM,0.784 µM
O=C(O)c1ccc(Cc2ccc(Cl)cc2)o1,138 µM,89.8 µM,90.5 µM,44.6 µM
Nc1ccccc1-c1ccc(C(=O)O)o1,95.8 µM,94.5 µM,56.6 µM,12.5 µM
